One data set has as its system Plasmodium falciparum. Description: Antimalarial activity against chloroquine-sensitive Plasmodium falciparum 3D7 ring-stage infected in human erythrocytes after 48 hrs by [3H]hypoxanthine assay. The format is functional, organism-based.
For another data set, the system named is HEK293. The experiment in a line: Cytotoxicity against HEK293 cells after 72 hrs by Alamar Blue assay. The format is cell-based. The note with it: Homo sapiens, HEK293, 72 h.
In the next data set the test system is HepG2. The experiment in a line: Cytotoxicity against human HepG2 cells after 72 hrs by Alamar Blue assay. The note with it: HepG2, 72 h. Format: cell-based.
The nature of data set [1]: Selectivity index, ratio of IC50 for chloroquine-sensitive Plasmodium falciparum 3D7 to IC50 for HEK293 cells.
A short description of data set [2]: Selectivity index, ratio of IC50 for chloroquine-sensitive Plasmodium falciparum 3D7 to IC50 for human HepG2 cells.
Data set [3] in a line: Cytotoxicity against HEK293 cells assay at 40 uM after 72 hrs by Alamar Blue assay. The format is cell-based. The settings on record: human, read-out: INH.
Data set [4] can be described thus: Cytotoxicity against human HepG2 cells assay at 40 uM after 72 hrs by Alamar Blue assay. The format is cell-based. The settings on record: read-out: INH.

`CNCCc1cc(Br)c(OCCCNC(=O)C2=NO[C@@]3(C=C(Br)C(OC)C(Br)=CO3)[C@H]2O)c(Br)c1` (some centres undefined) [PSAMMAPLYSINS F]: the 50% inhibitory concentration (IC50) came out at 1.92 µM in the data set with Plasmodium falciparum, 10.9 µM in the data set with HEK293 and 3.7 µM with HepG2. Also, the Ratio IC50 stood at 5 in data set [1] and 2 in data set [2].

Regarding `COC1C(Br)=CO[C@@]2(C=C1Br)ON=C(C(=O)NCCCOc1c(Br)cc(CCN(C)C(N)=O)cc1Br)[C@@H]2O` (some centres undefined) [PSAMMAPLYSINS G], the values for the IC50 in the data set with Plasmodium falciparum, in the data set with HEK293 and in the data set with HepG2 were 5.22 µM, 18.7 µM and 17.4 µM, respectively. Moreover, the “Ratio IC50” value in data set [1] and in data set [2] was 3 each time.

Consider `COC1C(Br)=CO[C@@]2(C=C1Br)ON=C(C(=O)NCCCOc1c(Br)cc(CC[N+](C)(C)C)cc1Br)[C@@H]2O.O=C([O-])C(F)(F)F` (some centres undefined) [PSAMMAPLYSIN H], for which the IC50 was 0.41 µM in the data set with Plasmodium falciparum, above 40 µM in the data set with HEK293 and above 40 µM in the data set on HepG2. For the same compound, the cytotoxicity at 72 h, 40 µM in data set [3] stood at 35%; in data set [4], 33%. Also, the “Ratio IC50” value in data set [1] and in data set [2] was above 97 in each case.

With `CCN(CC)CCCC(C)Nc1ccnc2cc(Cl)ccc12` (centres undefined) [CHLOROQUINE], the IC50 turned out to be 48 µM with HEK293 and 12.9 µM in the data set on HepG2.

The record behind these values is ChEMBL document CHEMBL1641471, “Psammaplysin H, a new antimalarial bromotyrosine alkaloid from a marine sponge of the genus Pseudoceratina” (Bioorg Med Chem Lett, 2011).
